Measured values taken from article PMC8811960, “A Novel 2-Carbon-Linked Dimeric Artemisinin With Potent Antileukemic Activity and Favorable Pharmacology” (Frontiers in Oncology, 2022).
Like-named read-outs stand apart in the source and are kept apart here.

Key:
MV4;11 AML xenografts = experiment: luc-labeled MV4;11 AML cell line xenograft; format: in vivo, NRG mice; settings: MV4;11 xenograft, 15 mg/kg/d PO, 5 days on, 9 days off, 5 cycles
Description: (§1) Immunodeficient NOD-Rag1^nullIL2rg^null (NRG) mice were purchased from Jackson Laboratory (Bar Harbor, ME), bred and housed at the University of Maryland Baltimore. Similar to our previous publication ([20]). mice were transplanted IV with luc-labeled human AML cell lines or cryopreserved AML patient cells on day -10, and baseline total body luminescence was quantified on day 0 by Xenogen bioluminescence imaging (Xenogen IVIS Spectrum; PerkinElmer, Waltham, MA). Mice were allocated to treatment groups so that each group had similar average day 0 luminescence, then groups were administered drugs per oral (PO; gavage). Luminescence of each mouse was assessed over time and compared with that mouse’s day 0 luminescence (fold-change AML burden). Clinical behavior, appearance, weight, and survival were also monitored.
Using our previously determined 5-day MTD SAV drug schedule (i.e. 5-day treatment cycles consisting of 15 mg/kg/d ART631 combined with 150 mg/kg/d VEN and 30 mg/kg/d SOR, followed by 9 days off drug; schematic in Figure 7A ), we assessed treatment of established human luc-labeled MV4;11 ( Figures 7B–D ) and MOLM14 AML ( Figures 8A–C ) cell line xenografts with VEN plus SOR plus ART631 in NRG mice ( Figures 7B , 8A ). […]

AML45 PDX = experiment: luc-labeled AML45 patient-derived xenograft; format: in vivo, NRG mice; settings: ART631 monotherapy p=0.0029
Description: as §1
We then compared the efficacy of 15 mg/kg/d ART631 monotherapy, versus 150 mg/kg/d VEN plus 30 mg/kg/d SOR, versus ART631 combined with VEN plus SOR (i.e. SAV) at the previously indicated doses, using a luc-labeled AML45 PDX model ( Figure 9A ). […]
Figure 9 VEN plus SOR plus ART631 inhibited growth of an AML PDX. […] (A) After Xenogen quantification of baseline total body luminescence on day 0, mice were placed into balanced experimental groups prior to drug administration via gavage, then treated per our previously established MTD PO x 5 day schedule (5 days on, 9 days off). […]

MOLM14 = experiment: alamarBlue growth inhibition, MOLM14; format: cell-based; settings: Homo sapiens, MOLM-14; MOLM14, 48h, alamarBlue, mean of 2 independent assays ± SD; read-out: IC50
Protocol: (§2) Cytotoxicity was assessed using alamarBlue assays (Life Technologies, Grand Island, NY) following manufacturer’s guidelines. Cell death was verified by Annexin V/7-aminoactinomycin D (7AAD) staining (BioLegend, San Diego, CA) per manufacturer’s guidelines.
In this experiment, provided to show the entire concentration:response range, MOLM14 AML cells were cultured with a range of concentrations of artesunate (AS), ART838, ART631, and ART576 for 48h. Graph indicates growth inhibition relative to vehicle (DMSO)-treated controls by alamarBlue absorbance assays. Data points and error bars represent mean and SD of 3 independent experiments done in triplicate.

10 human AML cell lines = experiment: alamarBlue growth inhibition, panel of 10 human AML cell lines; format: cell-based
Protocol: as §2
Cell lines with adverse risk cytogenetic and molecular features, e.g. MLL rearrangements (ML2, MOLM14, MV4;11, THP1), FLT3-ITD (MOLM14, MV4;11), TP53 mutations (KG1a, ML2, THP1, U937), and NRAS/KRAS mutations (ML2, THP1), were among those exquisitely sensitive to ART631, with IC50s < 50 nM. The K562 cell line was the only exception, as it was resistant to all 3 of these ARTs. Based on this in vitro activity data combined with the drug stability data described below, ART631 was prioritized over ART576 for further in vitro and in vivo antileukemic efficacy experiments here ( Table 2 ).

C=CCO/N=C(/C[C@H]1O[C@@H]2O[C@@]3(C)CC[C@H]4[C@H](C)CC[C@@H]([C@H]1C)[C@@]24OO3)[C@H]1O[C@@H]2O[C@@]3(C)CC[C@H]4[C@H](C)CC[C@@H]([C@H]1C)[C@@]24OO3 [ART631]
antileukemic activity of monotherapy (MV4;11 AML xenografts): no activity | survival versus vehicle (AML45 PDX): statistically significant increase in survival | IC50 (MOLM14): 32 ± 4 nM | IC50 (10 human AML cell lines; Homo sapiens, ML2, MOLM14, MV4;11, THP1, KG1a, U937, read-out: IC50s in cell lines with adverse risk cytogenetic and molecular features): < 50 nM | number of human AML cell lines whose growth was inhibited (10 human AML cell lines; of 10 human AML cell lines tested): 9 | IC50 (10 human AML cell lines; range over the inhibited cell lines of 10 human AML cell lines, read-out: IC50 range): 20 to 45 nM
